Measured values published in US9732075B2, “Benzimidazole-proline derivatives” (IDORSIA PHARMACEUTICALS LTD, priority 2012, dated 2017).

How the values were obtained:
[1] = target: human orexin-2 receptor (Homo sapiens (Human), UniProt O43614); test: In vitro assay: intracellular calcium measurements (FLIPR), antagonistic activity; assay type: cell-based; conditions: CHO cells expressing human orexin-2 receptor, orexin-A agonist, geometric mean, read-out: IC50 Ox2
Outline: (§1)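 IC50s are geometric means, possibly reference-normalized, from FLIPR calcium peaks in CHO cells bearing human orexin-1 or orexin-2 receptor. Fluo-4 AM/probenecid-loaded cells received antagonist for 120 min before challenge with orexin-A (final 3 nM, ~EC70), with responses compared against vehicle controls.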

[2] = target: human orexin-1 receptor (Homo sapiens (Human), UniProt O43613); test: as above; assay type: cell-based; conditions: CHO cells expressing human orexin-1 receptor, orexin-A agonist, geometric mean, read-out: IC50 Ox1
Outline: as §1

Sequence of human orexin-2 receptor (O43614 whole entry): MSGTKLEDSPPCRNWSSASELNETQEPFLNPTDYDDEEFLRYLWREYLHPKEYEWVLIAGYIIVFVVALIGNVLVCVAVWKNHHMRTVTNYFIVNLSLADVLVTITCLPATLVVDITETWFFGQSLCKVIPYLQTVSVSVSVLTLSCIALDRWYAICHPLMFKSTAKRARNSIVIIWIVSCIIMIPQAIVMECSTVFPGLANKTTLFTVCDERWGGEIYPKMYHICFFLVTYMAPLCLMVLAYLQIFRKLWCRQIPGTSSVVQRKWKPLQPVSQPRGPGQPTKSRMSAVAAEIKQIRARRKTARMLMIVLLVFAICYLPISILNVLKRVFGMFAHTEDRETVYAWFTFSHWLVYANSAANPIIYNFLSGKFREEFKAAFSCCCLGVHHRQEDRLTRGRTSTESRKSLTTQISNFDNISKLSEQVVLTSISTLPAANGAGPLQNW
Sequence of human orexin-1 receptor (O43613 whole entry): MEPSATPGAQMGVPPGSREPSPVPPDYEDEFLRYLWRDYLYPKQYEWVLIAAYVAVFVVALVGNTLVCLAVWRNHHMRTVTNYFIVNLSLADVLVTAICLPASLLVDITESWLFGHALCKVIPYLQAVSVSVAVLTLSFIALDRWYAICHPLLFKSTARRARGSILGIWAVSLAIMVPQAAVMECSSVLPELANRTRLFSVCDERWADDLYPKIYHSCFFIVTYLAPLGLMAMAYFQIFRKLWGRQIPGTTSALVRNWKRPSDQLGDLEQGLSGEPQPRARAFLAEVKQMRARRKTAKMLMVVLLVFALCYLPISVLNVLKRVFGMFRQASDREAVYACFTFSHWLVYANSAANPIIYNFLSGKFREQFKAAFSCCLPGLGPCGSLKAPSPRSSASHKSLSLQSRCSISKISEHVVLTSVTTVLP

SMILES | IC50 [1] | IC50 [2]
Cc1ccc(-c2cccc(F)c2)c(C(=O)N2CCC[C@@]2(C)c2nc3c(C)c(C)ccc3[nH]2)c1 [Ex. 5.109] | 4 nM | 3 nM
C=C1C[C@@H](c2nc3cc(Cl)c(C(F)(F)F)cc3[nH]2)N(C(=O)c2c(C)cccc2-n2nccn2)C1 [Ex. 6.183] | 21 nM | 127 nM
Cc1nc(C(=O)N2CCCC2c2nc3cc(C(F)(F)F)c(Cl)cc3[nH]2)c(-c2ccccc2)s1 (stereo not shown) [Ex. 1.137] | 33 nM | 4 nM
Cc1c(Cl)ccc2[nH]c([C@]3(C)CCCN3C(=O)c3cc(C(F)(F)F)ccc3-n3nccn3)nc12 [Ex. 5.40] | 91 nM | 44 nM
CO[C@@H]1C[C@@H](c2nc3ccc(Cl)c(C)c3[nH]2)N(C(=O)c2cc(C(F)(F)F)ccc2-n2nccn2)C1 [Ex. 3.17] | 51 nM | 368 nM
Cc1ccc(-n2nccn2)c(C(=O)N2CCC[C@@]2(C)c2nc3c(C)c(C)ccc3[nH]2)c1 [Ex. 5.28] | 19 nM | 4 nM
CCn1c([C@]2(C)CCCN2C(=O)c2ccc(C)cc2-n2nccn2)nc2cc(C)c(C)cc21 [Ex. 7.12] | 52 nM | 15 nM
C=C1C[C@@H](c2nc3cc(Cl)c(C)cc3[nH]2)N(C(=O)c2cc(C)ccc2-n2nccn2)C1 [Ex. 6.65] | 3 nM | 34 nM
C=C1C[C@@H](c2nc3cc(C)c(C)cc3[nH]2)N(C(=O)c2cc(Cl)ccc2-n2nccn2)C1 [Ex. 6.193] | 4 nM | 41 nM
CO[C@H]1C[C@@H](c2nc3c(C)cccc3[nH]2)N(C(=O)c2nc(C)sc2-c2ccccc2)C1 [Ex. 3.3] | 255 nM | 1290 nM
CO[C@H]1C[C@@H](c2nc3c(C)c(Cl)ccc3[nH]2)N(C(=O)c2nc(C)sc2-c2cccc(Cl)c2)C1 [Ex. 3.8] | 12 nM | 22 nM
C=C1C[C@@H](c2nc3cccc(Cl)c3[nH]2)N(C(=O)c2cc(C)ccc2-n2nccn2)C1 [Ex. 6.69] | 51 nM | 389 nM
CSc1ccc2nc([C@@H]3CCCN3C(=O)c3cnc(C)nc3-c3ccc(Br)c(Cl)c3)[nH]c2c1 [Ex. 1.58] | 24 nM | 32 nM
Cc1nc(C(=O)N2CC[C@H](C)[C@H]2c2nc3c(C(F)(F)F)cccc3[nH]2)c(-c2ccc(F)cc2)s1 [Ex. 4.149] | 752 nM | 14 nM
Cc1nc(C(=O)N2CCC[C@@]2(C)c2nc3c(C)c(Cl)ccc3n2C)c(-c2ccccc2)s1 [Ex. 7.7] | 3 nM | 2 nM
Cc1nc(C(=O)N2CCCC2c2nc3c(C)c(Cl)ccc3[nH]2)c(-c2cccc(Cl)c2)s1 (stereo not shown) [Ex. 1.109] | 10 nM | 5 nM
Cc1cc2[nH]c([C@@H]3[C@@H](C)CCN3C(=O)c3c(F)cccc3-c3cccnc3)nc2cc1Cl [Ex. 4.107] | 1760 nM | 47 nM
CO[C@H]1CN(C(=O)c2nc(C)ccc2-n2nccn2)C(C)(c2nc3c(C)c(Cl)ccc3[nH]2)C1 (stereo partly shown) [Ex. 3.56] | 37 nM | 18 nM
C[C@@]1(c2nc3cc(F)c(Br)cc3[nH]2)CCCN1C(=O)c1cc(Cl)ccc1-n1nccn1 [Ex. 5.129] | 62 nM | 20 nM
CSc1ccc2[nH]c([C@@H]3CCCN3C(=O)c3cc(C)ccc3-n3nccn3)nc2c1 [Ex. 1.7] | 5 nM | 93 nM

SMILES | IC50 [1] | IC50 [2]
Cc1ccc(-c2ccc(F)cc2)c(C(=O)N2CCC[C@@]2(C)c2nc3cc(C(F)(F)F)ccc3[nH]2)c1 [Ex. 5.197] | 166 nM | 18 nM
Cc1ccc(-n2nccn2)c(C(=O)N2CC[C@H](C)[C@H]2c2nc3c(C)cc(C)cc3[nH]2)c1 [Ex. 4.33] | 294 nM | 9 nM
CSc1cccc2nc([C@@H]3CCCN3C(=O)c3nc(C)sc3-c3cccc(C(F)(F)F)c3)[nH]c12 [Ex. 1.64] | 18 nM | 12 nM
C=C1C[C@@H](c2nc3cc(OC)ccc3[nH]2)N(C(=O)c2ccccc2-c2csc(C)n2)C1 [Ex. 6.21] | 76 nM | 1970 nM
COc1cc2nc([C@]3(C)CCCN3C(=O)c3cc(C)c(C)cc3-n3nccn3)[nH]c2cc1OC [Ex. 5.72] | 16 nM | 19 nM
Cc1cc(C(=O)N2CCC[C@@]2(C)c2nc3c(C)c(Cl)ccc3[nH]2)c(-n2nccn2)cc1C [Ex. 5.41] | 2 nM | 2 nM
C=C1C[C@@H](c2nc3cc(C)c(C)cc3[nH]2)N(C(=O)c2cc(C)c(C)cc2-n2nccn2)C1 [Ex. 6.197] | 2 nM | 6 nM
COCCn1c([C@]2(C)CCCN2C(=O)c2cc(C)ccc2-n2nccn2)nc2cc(OC)c(OC)cc21 [Ex. 7.46] | 77 nM | 78 nM
C=C1C[C@@H](c2nc3cccc(C)c3[nH]2)N(C(=O)c2nc(C)sc2-c2cccc(C(F)(F)F)c2)C1 [Ex. 6.112] | 0.7 nM | 15 nM
COc1ccc2nc([C@@H]3CCCN3C(=O)c3nc(C)sc3-c3cccc(F)c3)[nH]c2c1 [Ex. 1.21] | 149 nM | 1180 nM
C=C1C[C@@H](c2nc3c(OC)ccc(OC)c3[nH]2)N(C(=O)c2nc(C)sc2-c2ccc(C)c(C)c2)C1 [Ex. 6.48] | 7 nM | 14 nM
Cc1ccc(-c2ccc(OC(F)(F)F)cc2)c(C(=O)N2CCC[C@@]2(C)c2nc3cc(C(F)(F)F)c(Cl)cc3[nH]2)c1 [Ex. 5.158] | 879 nM | 525 nM
Cc1nc(C(=O)N2CCC[C@@]2(C)c2nc3c(C)c(C)c(Br)cc3[nH]2)c(-c2cccc(Cl)c2Cl)s1 [Ex. 5.272] | 12 nM | 8 nM
Cc1ccc(-n2nccn2)c(C(=O)N2CC[C@H](C)[C@H]2c2nc3c(C)c(C)ccc3[nH]2)c1 [Ex. 4.37] | 988 nM | 24 nM
Cc1ccc(-c2ncccn2)c(C(=O)N2CCC[C@@]2(C)c2nc3cc(F)c(Br)cc3[nH]2)c1 [Ex. 5.282] | 97 nM | 47 nM
Cc1nc(C(=O)N2CC[C@H](C)[C@H]2c2nc3c(Cl)cccc3[nH]2)c(-c2ccc(F)cc2)s1 [Ex. 4.118] | 4350 nM | 50 nM
Cc1ccc(-c2ccc(C(F)(F)F)cc2)c(C(=O)N2CCC[C@@]2(C)c2nc3cc(C(F)(F)F)c(Cl)cc3[nH]2)c1 [Ex. 5.157] | 538 nM | 367 nM
Cc1ccc(-n2nccn2)c(C(=O)N2CC[C@H](C)[C@H]2c2nc3c(Cl)cccc3[nH]2)c1 [Ex. 4.36] | 2740 nM | 70 nM
C=C1CN(C(=O)c2cc(C)c(C)cc2-n2nccn2)C(C)(c2nc3cc(OC)ccc3[nH]2)C1 (stereo not shown) [Ex. 6.159] | 10 nM | 11 nM
Cc1c(Cl)ccc2nc([C@]3(C)CCCN3C(=O)c3nc(-c4ccccc4)sc3-c3ccc(F)cc3)[nH]c12 [Ex. 5.226] | 155 nM | 7 nM

SMILES | IC50 [1] | IC50 [2]
Cc1nc(C(=O)N2CCC[C@@]2(C)c2nc3ccc(F)c(F)c3[nH]2)c(-c2ccc(F)cc2)s1 [Ex. 5.208] | 284 nM | 53 nM
COc1ccc2[nH]c(C3CCCN3C(=O)c3cc(C)ccc3-n3nccn3)nc2c1 (stereo not shown) [Ex. 1.141] | 13 nM | 507 nM
COc1cccc(C#Cc2ccccc2C(=O)N2CC[C@H](C)[C@H]2c2nc3cc(Cl)c(C)cc3[nH]2)c1 [Ex. 4.135] | 203 nM | 4 nM
COc1cc2nc([C@]3(C)CCCN3C(=O)c3ccccc3-c3cccc(C)c3)[nH]c2cc1OC [Ex. 5.87] | 157 nM | 203 nM
C[C@@]1(c2nc3cc(C(F)(F)F)ccc3[nH]2)CCCN1C(=O)c1ccccc1-n1nccn1 [Ex. 5.167] | 351 nM | 91 nM
CO[C@@H]1C[C@@H](c2nc3ccc(Cl)c(C)c3[nH]2)N(C(=O)c2c(-n3nccn3)ccc(C)c2F)C1 [Ex. 3.13] | 7 nM | 16 nM
C=C1C[C@@H](c2nc3ccccc3[nH]2)N(C(=O)c2nc(C)sc2-c2cccc(Cl)c2)C1 [Ex. 6.43] | 62 nM | 368 nM
CSc1cccc2nc([C@@H]3CCCN3C(=O)c3cnc(C)nc3-c3ccc(Cl)c(Cl)c3)[nH]c12 [Ex. 1.79] | 46 nM | 5 nM
Cc1ccc(-n2nccn2)c(C(=O)N2CCC[C@@]2(C)c2nc3cc(F)c(Br)cc3[nH]2)c1F [Ex. 5.124] | 411 nM | 113 nM
Cc1nc(C(=O)N2CCCC2c2nc3cc(Br)ccc3[nH]2)c(-c2cccc(Cl)c2)s1 (stereo not shown) [Ex. 1.93] | 458 nM | 102 nM
Cc1nc(C(=O)N2CC[C@H](C)[C@H]2c2nc3c(C)c(Cl)ccc3[nH]2)c(-c2ccc(Cl)cc2)s1 [Ex. 4.63] | 122 nM | 0.8 nM
C[C@@]1(c2nc3cc(C(F)(F)F)ccc3[nH]2)CCCN1C(=O)c1cc(-c2cccnc2)ccc1-c1ccccc1 [Ex. 5.265] | 32 nM | 9 nM
Cc1ccc(-c2nc(C(=O)N3CCC[C@@]3(C)c3nc4c(C)c(Cl)ccc4[nH]3)c(-c3ccc(F)cc3)s2)cc1C [Ex. 5.254] | 9270 nM | 39 nM
Cc1ccc(-c2cccc(F)c2)c(C(=O)N2CCC[C@@]2(C)c2nc3cc(C(F)(F)F)c(Cl)cc3[nH]2)c1 [Ex. 5.153] | 35 nM | 22 nM
CCn1c([C@]2(C)CCCN2C(=O)c2cc(C)ccc2-n2nccn2)nc2c(C)c(Cl)ccc21 [Ex. 7.21] | 2 nM | 1 nM
Cc1cc2nc([C@]3(C)CCCN3C(=O)c3ccccc3-c3ccc(F)cc3)[nH]c2cc1C [Ex. 5.104] | 97 nM | 92 nM
Cc1ccc(-n2nccn2)c(C(=O)N2CCC[C@@]2(C)c2nc3cc(C(F)(F)F)c(Cl)cc3[nH]2)c1 [Ex. 5.24] | 9 nM | 2 nM
COc1cc2nc([C@]3(C)CCCN3C(=O)c3nc(C)sc3-c3ccc(Cl)cc3)[nH]c2cc1OC [Ex. 5.79] | 97 nM | 43 nM
Cc1nc(C(=O)N2CC[C@H](C)[C@H]2c2nc3c(C)cc(Cl)cc3[nH]2)c(-c2ccc(Cl)cc2)s1 [Ex. 4.94] | 543 nM | 3 nM
